# Tested on: 556581-035-R-J1-PDC complex spheroid growth
# Test: Anticancer human tumor 556581-035-R-J1-PDC patient-derived ovarian carcinoma cell line growth inhibition [AhR]
# Conditions: for IC50: curve of first compound; for viability, T/C: stronger effect = lower value
# Summary of the method: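 Agents were dosed in half-log steps down from roughly clinical Cmax, or from 10 microM where Cmax was unknown, alone and with AhR antagonists. Read-out: percent test/control growth of tumor spheroids containing HUVEC and MSC stromal cells.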
# [1] = second compound 0.1 µM, first compound 0.0316 µM
# [2] = second compound 0.1 µM, first compound 0.1 µM
# [3] = second compound 0.316 µM, first compound 0.0316 µM
# [4] = second compound 0.316 µM, first compound 0.1 µM
# [5] = second compound 1 µM, first compound 0.0316 µM
# [6] = second compound 1 µM, first compound 0.1 µM
# [7] = second compound 3.16 µM, first compound 0.0316 µM
# [8] = second compound 3.16 µM, first compound 0.1 µM
# [9] = second compound 10 µM, first compound 0.0316 µM
# [10] = second compound 10 µM, first compound 0.1 µM
# [11] = second compound 0.1 µM, first compound 0.00949 µM
# [12] = second compound 0.1 µM, first compound 0.03 µM
# [13] = second compound 0.1 µM, first compound 0.0949 µM
# [14] = second compound 0.1 µM, first compound 0.3 µM
# [15] = second compound 0.316 µM, first compound 0.00949 µM
# [16] = second compound 0.316 µM, first compound 0.03 µM
# [17] = second compound 0.316 µM, first compound 0.0949 µM
# [18] = second compound 0.316 µM, first compound 0.3 µM
# [19] = second compound 1 µM, first compound 0.00949 µM
# [20] = second compound 1 µM, first compound 0.03 µM
# [21] = second compound 1 µM, first compound 0.0949 µM
# [22] = second compound 1 µM, first compound 0.3 µM
# [23] = second compound 3.16 µM, first compound 0.00949 µM
# [24] = second compound 3.16 µM, first compound 0.03 µM
# [25] = second compound 3.16 µM, first compound 0.0949 µM
# [26] = second compound 3.16 µM, first compound 0.3 µM
# [27] = second compound 10 µM, first compound 0.00949 µM
# [28] = second compound 10 µM, first compound 0.03 µM
# [29] = second compound 10 µM, first compound 0.0949 µM
# [30] = second compound 10 µM, first compound 0.3 µM
# 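For viability, T/C in this document: compound exposure lasted 7 days; 100% = DMSO vehicle control growth.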
smiles,measurement,setting,value
CC1(C)CCC(CN2CCN(c3ccc(C(=O)NS(=O)(=O)c4ccc(NCC5CCOCC5)c([N+](=O)[O-])c4)c(Oc4cnc5[nH]ccc5c4)c3)CC2)=C(c2ccc(Cl)cc2)C1 + Cc1cncc(-c2nc(NCCc3c[nH]c4ccccc34)c3ncn(C(C)C)c3n2)c1,IC50,second compound 0.1 µM,> 10000 nM
same,IC50,second compound 0.316 µM,> 10000 nM
same,IC50,second compound 1 µM,> 10000 nM
same,IC50,second compound 3.16 µM,> 10000 nM
same,IC50,second compound 10 µM,> 10000 nM
same,"viability, T/C",[1],104%
same,"viability, T/C",[2],98.6%
same,"viability, T/C","second compound 0.1 µM, first compound 0.316 µM",102%
same,"viability, T/C","second compound 0.1 µM, first compound 1 µM",91%
same,"viability, T/C","second compound 0.1 µM, first compound 3.16 µM",93.1%
same,"viability, T/C","second compound 0.1 µM, first compound 10 µM",77.5%
same,"viability, T/C",[3],95.6%
same,"viability, T/C",[4],98.2%
same,"viability, T/C","second compound 0.316 µM, first compound 0.316 µM",102%
same,"viability, T/C","second compound 0.316 µM, first compound 1 µM",95.1%
same,"viability, T/C","second compound 0.316 µM, first compound 3.16 µM",96.3%
same,"viability, T/C","second compound 0.316 µM, first compound 10 µM",72.3%
same,"viability, T/C",[5],105%
same,"viability, T/C",[6],99.9%
same,"viability, T/C","second compound 1 µM, first compound 0.316 µM",101%
same,"viability, T/C","second compound 1 µM, first compound 1 µM",91.5%
same,"viability, T/C","second compound 1 µM, first compound 3.16 µM",85.6%
same,"viability, T/C","second compound 1 µM, first compound 10 µM",76.9%
same,"viability, T/C",[7],95.2%
same,"viability, T/C",[8],101%
same,"viability, T/C","second compound 3.16 µM, first compound 0.316 µM",91%
same,"viability, T/C","second compound 3.16 µM, first compound 1 µM",87.8%
same,"viability, T/C","second compound 3.16 µM, first compound 3.16 µM",80.6%
same,"viability, T/C","second compound 3.16 µM, first compound 10 µM",67.8%
same,"viability, T/C",[9],88.9%
same,"viability, T/C",[10],80.6%
same,"viability, T/C","second compound 10 µM, first compound 0.316 µM",87.6%
same,"viability, T/C","second compound 10 µM, first compound 1 µM",83.7%
same,"viability, T/C","second compound 10 µM, first compound 3.16 µM",81.2%
same,"viability, T/C","second compound 10 µM, first compound 10 µM",67.1%
CCN(c1cc(-c2ccc(CN3CCOCC3)cc2)cc(C(=O)NCc2c(C)cc(C)[nH]c2=O)c1C)C1CCOCC1 + Cc1cncc(-c2nc(NCCc3c[nH]c4ccccc34)c3ncn(C(C)C)c3n2)c1,IC50,second compound 0.1 µM,> 3000 nM
same,IC50,second compound 0.316 µM,> 3000 nM
same,IC50,second compound 1 µM,> 3000 nM
same,IC50,second compound 3.16 µM,> 3000 nM
same,IC50,second compound 10 µM,2230 nM
same,"viability, T/C",[11],97.7%
same,"viability, T/C",[12],109%
same,"viability, T/C",[13],96.2%
same,"viability, T/C",[14],102%
same,"viability, T/C","second compound 0.1 µM, first compound 0.949 µM",102%
same,"viability, T/C","second compound 0.1 µM, first compound 3 µM",100%
same,"viability, T/C",[15],98%
same,"viability, T/C",[16],96.2%
same,"viability, T/C",[17],102%
same,"viability, T/C",[18],101%
same,"viability, T/C","second compound 0.316 µM, first compound 0.949 µM",99.5%
same,"viability, T/C","second compound 0.316 µM, first compound 3 µM",104%
same,"viability, T/C",[19],104%
same,"viability, T/C",[20],118%
same,"viability, T/C",[21],112%
same,"viability, T/C",[22],94.9%
same,"viability, T/C","second compound 1 µM, first compound 0.949 µM",88.2%
same,"viability, T/C","second compound 1 µM, first compound 3 µM",92.3%
same,"viability, T/C",[23],86.4%
same,"viability, T/C",[24],99.3%
same,"viability, T/C",[25],101%
same,"viability, T/C",[26],88.6%
same,"viability, T/C","second compound 3.16 µM, first compound 0.949 µM",92.1%
same,"viability, T/C","second compound 3.16 µM, first compound 3 µM",92.2%
same,"viability, T/C",[27],84.4%
same,"viability, T/C",[28],83.8%
same,"viability, T/C",[29],83.3%
same,"viability, T/C",[30],69.6%
same,"viability, T/C","second compound 10 µM, first compound 0.949 µM",66.5%
same,"viability, T/C","second compound 10 µM, first compound 3 µM",44.3%
Cn1ncnc1C1c2n[nH]c(=O)c3cc(F)cc(c23)NC1c1ccc(F)cc1 (stereo not given) + Cc1cncc(-c2nc(NCCc3c[nH]c4ccccc34)c3ncn(C(C)C)c3n2)c1,IC50,second compound 0.1 µM,> 100 nM
same,IC50,second compound 0.316 µM,> 100 nM
same,IC50,second compound 1 µM,> 100 nM
same,IC50,second compound 3.16 µM,> 100 nM
same,IC50,second compound 10 µM,> 100 nM
same,"viability, T/C","second compound 0.1 µM, first compound 0.000316 µM",105%
same,"viability, T/C","second compound 0.1 µM, first compound 0.001 µM",102%
same,"viability, T/C","second compound 0.1 µM, first compound 0.00316 µM",95.1%
same,"viability, T/C","second compound 0.1 µM, first compound 0.01 µM",110%
same,"viability, T/C",[1],92.4%
same,"viability, T/C",[2],90.3%
same,"viability, T/C","second compound 0.316 µM, first compound 0.000316 µM",99.2%
same,"viability, T/C","second compound 0.316 µM, first compound 0.001 µM",99.3%
same,"viability, T/C","second compound 0.316 µM, first compound 0.00316 µM",101%
same,"viability, T/C","second compound 0.316 µM, first compound 0.01 µM",89.8%
same,"viability, T/C",[3],86.9%
same,"viability, T/C",[4],86.6%
same,"viability, T/C","second compound 1 µM, first compound 0.000316 µM",96.1%
same,"viability, T/C","second compound 1 µM, first compound 0.001 µM",104%
same,"viability, T/C","second compound 1 µM, first compound 0.00316 µM",102%
same,"viability, T/C","second compound 1 µM, first compound 0.01 µM",102%
same,"viability, T/C",[5],103%
same,"viability, T/C",[6],98.6%
same,"viability, T/C","second compound 3.16 µM, first compound 0.000316 µM",90.6%
same,"viability, T/C","second compound 3.16 µM, first compound 0.001 µM",107%
same,"viability, T/C","second compound 3.16 µM, first compound 0.00316 µM",97.7%
same,"viability, T/C","second compound 3.16 µM, first compound 0.01 µM",91.8%
same,"viability, T/C",[7],85.2%
same,"viability, T/C",[8],101%
same,"viability, T/C","second compound 10 µM, first compound 0.000316 µM",87.2%
same,"viability, T/C","second compound 10 µM, first compound 0.001 µM",83.4%
same,"viability, T/C","second compound 10 µM, first compound 0.00316 µM",92%
same,"viability, T/C","second compound 10 µM, first compound 0.01 µM",85.7%
same,"viability, T/C",[9],89.9%
same,"viability, T/C",[10],79.1%
Nc1ncn(C2CC(O)C(CO)S2)c(=O)n1 (stereo not given) + Cc1cncc(-c2nc(NCCc3c[nH]c4ccccc34)c3ncn(C(C)C)c3n2)c1,IC50,second compound 0.1 µM,> 300 nM
same,IC50,second compound 0.316 µM,> 300 nM
same,IC50,second compound 1 µM,> 300 nM
same,IC50,second compound 3.16 µM,> 300 nM
same,IC50,second compound 10 µM,> 300 nM
same,"viability, T/C","second compound 0.1 µM, first compound 0.000949 µM",99.3%
same,"viability, T/C","second compound 0.1 µM, first compound 0.003 µM",102%
same,"viability, T/C",[11],88.9%
same,"viability, T/C",[12],93.8%
same,"viability, T/C",[13],82%
same,"viability, T/C",[14],67.3%
same,"viability, T/C","second compound 0.316 µM, first compound 0.000949 µM",113%
same,"viability, T/C","second compound 0.316 µM, first compound 0.003 µM",109%
same,"viability, T/C",[15],111%
same,"viability, T/C",[16],93.2%
same,"viability, T/C",[17],81%
same,"viability, T/C",[18],68%
same,"viability, T/C","second compound 1 µM, first compound 0.000949 µM",116%
same,"viability, T/C","second compound 1 µM, first compound 0.003 µM",109%
same,"viability, T/C",[19],99.5%
same,"viability, T/C",[20],106%
same,"viability, T/C",[21],85.7%
same,"viability, T/C",[22],80.4%
same,"viability, T/C","second compound 3.16 µM, first compound 0.000949 µM",87.7%
same,"viability, T/C","second compound 3.16 µM, first compound 0.003 µM",84.8%
same,"viability, T/C",[23],95.8%
same,"viability, T/C",[24],94.3%
same,"viability, T/C",[25],79.5%
same,"viability, T/C",[26],72.9%
same,"viability, T/C","second compound 10 µM, first compound 0.000949 µM",84.7%
same,"viability, T/C","second compound 10 µM, first compound 0.003 µM",86.7%
same,"viability, T/C",[27],91.6%
same,"viability, T/C",[28],87.3%
same,"viability, T/C",[29],79.4%
same,"viability, T/C",[30],72.6%

# — PubChem BioAssay AID1918999 (Molecular Pharmacology Branch, DTP, NCI, 2023)
